Target: T1, EGRAFY mutant (R91A, F188Y; SEQ ID NO: 15) (Dickeya chrysanthemi, UniProt P0C7B7, F187Y/INS163G/R91A)
T1 construct: expressed in transfected cells; host or cells: Xenopus laevis oocytes
Assay: Two-electrode voltage clamp, amine agonist activation of the EGRAFY mutant in oocytes
Type: cell-based, Erwinia chrysanthemi / human
Experimental: For pH measurements, 10 mM MES was added. […] Non-linear regressions were performed using Prism software (Graphpad). […] (FIG. 2).

With `CCCN` [propylamine] the EC50 was 1.9 ± 0.2 µM.
